Assay [1] deals with healthy adults. To be noted: p-value vs placebo; compositive level; single beverage dose; b330.
Assay [2] concerns healthy adults. Conditions: vs placebo; compositive level; single beverage dose.

For `Cn1c(=O)c2c(ncn2C)n(C)c1=O` [Caffeine, caffeine], the “improve the speed of performance significantly comparing to placebo (p), as printed in the attention paragraph” value in the assay on healthy adults [1] amounted to 0.002. The accuracy of performance result in the assay on healthy adults [2] is “numerically trends to improve the accuracy of performance, although no significance observed”.

These data come from patent publication US20260240203A1, “COMPOSITIONS CONTAINING GAMMA-AMINOBUTYRIC ACID AND METHODS FOR IMPROVING COGNITIVE FUNCTIONS, MOOD, AND ALERTNESS” (THE COCA-COLA COMPANY, priority 2023, published 2026).
